In patent EP2060268A1, “Pharmaceutical compositions for pulmonary or nasal delivery of peptides” (NOVO NORDISK A/S, priority 2007, dated 2009):
Ends that are not written are not given here.

Legend:
[1] = when compared to human amylin; cited from earlier work
[2] = Pharmacokinetics after intra-tracheal dry powder delivery to anaesthetised pigs; format: in vivo; conditions: pig, inhaled or intranasal, pramlintide/insulin aspart powder delivered intra-tracheally, plasma
Procedure: For pulmonary delivery the PennCentury™ DP-4 dry powder insufflator (Penn-Century Inc) modified for pigs was used in combination with the PennCentury™ adjustable air pump, model AP-1 (Penn-Century Inc). The powder is weighed into the sample chamber of the device and manually emitted from the device by using the AP-1 adjustable pump.
The pigs were fasted for approximately 18 h before the experiment. Anaesthesia was induced by injecting Domitor IV (1 mg/mL, 0.4 mL/pig), followed by slow IV infusion of Propofol (10 mg/ml) until the sufficient depth of anaesthesia was obtained, approximately 10-15 mL/pig in total. Atropin (1 mg/ml, 0.5 mL/pig) was injected i.m. to stabilize cardiac parameters and to decrease bronchial secretions. After anaesthesia (and) the pigs were intubated with an endotracheal tube size 8.0 mm. Via an L-piece and the endotraceal tube the pigs were connected to a respirator, with respiration frequency set to 10/min and tidal volume to 300 mL/breath to mimic deep inhalations in humans. […]
Insulin aspart was analyzed using an in-house LOCI sandwich immunoassay with two different antibodies. […] Pramlintide was analyzed using a commercially available human amylin ELISA kit modified for porcine samples (Linco Research, cat. no. EZHA-52K). […]

[3] = cited from earlier work
[4] = Enhancement of peptide absorption in the lung by absorption enhancers (animal model); format: in vivo; conditions: tested as absorption enhancer, pulmonary route
[5] = treated test animals; e.g. provoking marked hyperlactemia followed by hyperglycemia; cited from earlier work

Compound | enhancement of peptide absorption in the lung [4] | amylin activity in vivo [5] | other results
CC[C@H](C)[C@H](NC(=O)[C@@H]1CCCN1C(=O)CNC(=O)[C@H](Cc1ccccc1)NC(=O)[C@H](CC(N)=O)NC(=O)[C@H](CC(N)=O)NC(=O)[C@H](CO)NC(=O)[C@H](CO)NC(=O)[C@H](Cc1c[nH]cn1)NC(=O)[C@@H](NC(=O)[C@H](CC(C)C)NC(=O)[C@H](Cc1ccccc1)NC(=O)[C@H](CC(N)=O)NC(=O)[C@H](C)NC(=O)[C@H](CC(C)C)NC(=O)[C@H](CCCNC(=N)N)NC(=O)[C@H](CCC(N)=O)NC(=O)[C@@H](NC(=O)[C@H](C)NC(=O)[C@@H]1CSSC[C@H](NC(=O)[C@@H](N)CCCCN)C(=O)N[C@@H](CC(N)=O)C(=O)N[C@@H]([C@@H](C)O)C(=O)N[C@@H](C)C(=O)N[C@@H]([C@@H](C)O)C(=O)N1)[C@@H](C)O)C(C)C)C(=O)N[C@@H](CC(C)C)C(=O)N1CCC[C@H]1C(=O)N1CCC[C@H]1C(=O)N[C@H](C(=O)N[C@@H](CC(N)=O)C(=O)N[C@H](C(=O)NCC(=O)N[C@@H](CO)C(=O)N[C@@H](CC(N)=O)C(=O)N[C@H](C(=O)N[C@@H](Cc1ccc(O)cc1)C(N)=O)[C@@H](C)O)C(C)C)[C@@H](C)O [Symlin, ^25,28,29Pro-h-amylin] | – | – | solubility and stability characteristics [1]: more desirable solubility and stability characteristics; Tmax [2]: 40 min; time to reach Cmax ([3]; after a subcutaneous injection): approximately 20 minutes; plasma t½ ([3]; subcutaneous injection): approximately 20 minutes
C[C@H](CCC(=O)NCC(=O)O)[C@H]1CC[C@H]2[C@@H]3[C@H](O)C[C@@H]4C[C@H](O)CC[C@]4(C)[C@H]3C[C@H](O)[C@]12C [glycocholate] | effectively enhance peptide absorption in the lung | – | –
CC(=O)OC1CC2(C)C(CC(O)C3C4(C)CCC(O)C(C)C4CCC32C)C1=C(CCCC(C)C)C(=O)NCCS(=O)(=O)O (stereo not drawn) [taurodihydrofusidate] | effectively enhance peptide absorption in the lung | – | –
C[C@H](CCC(=O)O)[C@H]1CC[C@H]2[C@@H]3[C@@H](O)C[C@@H]4C[C@H](O)CC[C@]4(C)[C@H]3CC[C@]12C [ursodeoxycholate] | effectively enhance peptide absorption in the lung | – | –
Dimethyl-β-cyclodextrin | absorption enhancing effect | – | –
^18Arg^25, 28Pro-h-amylin | – | show amylin activity in vivo | solubility and stability characteristics [1]: more desirable solubility and stability characteristics
^25Pro^26Val^28, 29Pro-h-amylin | – | – | solubility and stability characteristics [1]: more desirable solubility and stability characteristics
^28Pro-h-amylin (KCNTATCATQRLANFLVHSSNNFGAILPSTNVGSNTY; ends and bridges not checked; cysteine pairing not given here; UniProt P10997 34-70, looked up, variant S28P) | – | show amylin activity in vivo | –
des-^1Lys-h-amylin (CNTATCATQRLANFLVHSSNNFGAILSSTNVGSNTY; ends and bridges not checked; cysteine pairing not given here; UniProt P10997 35-70, looked up, fragment) | – | show amylin activity in vivo | –
des-^1Lys^18Arg^25, 28Pro-h-amylin | – | show amylin activity in vivo | –
lysophospatidylcholine | effective enhancer | – | –
